Assay results from the SangsterLogP compilation.

Test: method code SF-AS, from DOI: 10.1016/s0006-291x(89)80063-4, PMID: 2916990
Conditions: pH 7.5

Structure (SMILES) | logD
O=c1[nH]c(=O)n([C@H]2CC[C@@H](CO)O2)cc1I | -0.61
O=c1ccn([C@H]2C[C@H](O)[C@@H](CO)O2)c(=O)[nH]1 | -1.51
[N-]=[N+]=N[C@@H]1[C@H](N=[N+]=[N-])[C@@H](CO)O[C@H]1n1cnc2c(N)ncnc21 | 0.8
Nc1nc(N)c2ncn([C@H]3CC(F)[C@@H](CO)O3)c2n1 (stereo partly specified) | 0.05
[N-]=[N+]=N[C@H]1C[C@H](n2cnc3c(N)nc(N)nc32)O[C@@H]1CO | 0.24
O=c1[nH]c(=O)n([C@H]2CC[C@@H](CO)O2)cc1Cl | -1.11
O=c1ccn([C@H]2C=C[C@@H](CO)O2)c(=O)[nH]1 | -1.07
Nc1ncnc2c1ncn2[C@H]1C[C@H](F)[C@@H](CO)O1 | 0.08
Nc1ncnc2c1ncn2[C@H]1C=C[C@@H](CO)O1 | -0.36
O=c1ccn(C2CCC(CO)O2)c(=O)[nH]1 (stereo unspecified) | -0.89
O=c1[nH]c(=O)n([C@H]2CC[C@@H](CO)O2)cc1Br | -0.99
Nc1nc2c(ncn2[C@H]2C[C@H](F)[C@@H](CO)O2)c(=O)[nH]1 | -0.66
O=c1[nH]c(=O)n([C@H]2C[C@H](F)[C@@H](CO)O2)cc1Br | -0.04
Nc1nc(N)c2ncn([C@H]3C[C@H](O)[C@@H](CO)O3)c2n1 | -0.52
Nc1nc2c(ncn2[C@H]2C=C[C@@H](CO)O2)c(=O)[nH]1 | -1.21
[N-]=[N+]=N[C@H]1C[C@H](n2cnc3c(N)ncnc32)O[C@@H]1CO | 0.35
[N-]=[N+]=N[C@H]1C[C@H](n2ccc(N)nc2=O)O[C@@H]1CO | -0.64
O=c1[nH]c(=O)n([C@H]2C[C@H](F)[C@@H](CO)O2)cc1Cl | -0.17
Nc1nc2c(ncn2[C@H]2CC[C@@H](CO)O2)c(=O)[nH]1 | -1.01
[N-]=[N+]=N[C@H]1C[C@H](n2cnc3c(=O)[nH]c(N)nc32)O[C@@H]1CO | -0.33
O=c1ccn([C@H]2C[C@H](F)[C@@H](CO)O2)c(=O)[nH]1 | -0.49
